# Patent US9534004B2, “Crystalline forms of ceftaroline fosamil” (Sandoz AG, priority 2012, dated 2017)
# Experiments:
# Type in all cases: physicochemical
# [1] = Humidity and temperature controlled XRPD (sorptive/desorptive cycle, 0-90% RH); settings: RH varied between 0 and 90%, 25° C.
# Excerpt: The positions of certain XRPD peaks of form H change when varying the RH between 0 and 90%. XRPD measurements in this range show anisotropic peak shifts to higher 2-theta angles on drying, which are reversible when increasing the relative humidity. These shifts are due to the shrinkage respectively the expansion of the unit cell caused by humidity dependent water contents in the sample. […] Table 1 lists some characteristic XRPD peaks from diffractograms recorded at increasing relative humidities during the sorptive cycle of the experiment.
# For humidity and temperature controlled XRPD measurements samples were equilibrated in a VGI 2000M humidity chamber (SMS, Middlesex UK) with integrated peltier heat pump, circulating fluid pump and water reservoir to ensure uniform temperature distribution and stable sample humidities. RH controlled sorptive and desorptive measurements were recorded between 0%-90% RH+/−0.3% RH in 10% steps with an equilibrium time of 2 hours between consecutive measurements.
# [2] = Storage at different relative humidities (composition / pKa constancy); settings: for change of composition when stored at different relative humidities: pKa of the drug substance not affected
# Excerpt: Both ceftaroline fosamil acetic acid solvate monohydrate and ceftaroline fosamil propionic acid solvate monohydrate of EP1310502 A1 contain carbon acids in their crystal structure. […] Consequently in order to avoid batch-wise adjusting of the pH adjusting excipient, ceftaroline fosamil acetic acid solvate monohydrate and ceftaroline fosamil propionic acid solvate monohydrate of EP1310502 A1 need to be stored at low relative humidities in order to ensure a constant carbon acid amount and therefore a constant pKa value of the drug substance.
# [3] = Residual solvent content; settings: form obtained from slurry in aqueous ethanol
# Excerpt: The amounts of residual solvents of the novel forms H and D of ceftaroline fosamil of the present invention are well within the allowed ICH-limits. E.g. for the production of form H of ceftaroline fosamil of the present invention no organic solvent is used as this specific form is obtained from a slurry in water. Form D is obtained from a slurry of ceftaroline fosamil in aqueous ethanol. […] Therefore ceftaroline fosamil forms H and D are suitable forms for the preparation of a medicament.
"physical (solid form) stability on varying relative humidity, by XRPD [1]",ethanol amount (residual solvent) [3],"fate of carbon acid in the crystal structure at increased relative humidities ([2]; increased relative humidities, decreased carbon acid amount affects pKa of drug substance)",SMILES,change of composition when stored at different relative humidities [2]
a phase transformation can be excluded,–,–,"CCO/N=C(\C(=O)N[C@@H]1C(=O)N2C(C(=O)[O-])=C(Sc3nc(-c4cc[n+](C)cc4)cs3)CS[C@H]12)c1nsc(NP(=O)(O)O)n1 [form H, ceftaroline fosamil]",only show variations in their water content
no peak shifts are observed,below 0.5%,–,"CCO/N=C(\C(=O)N[C@@H]1C(=O)N2C(C(=O)[O-])=C(Sc3nc(-c4cc[n+](C)cc4)cs3)CS[C@H]12)c1nsc(NP(=O)(O)O)n1 [form D, ceftaroline fosamil]",only show variations in their water content
–,–,partially replaced by water,"CCO/N=C(\C(=O)N[C@@H]1C(=O)N2C(C(=O)[O-])=C(Sc3nc(-c4cc[n+](C)cc4)cs3)CS[C@H]12)c1nsc(NP(=O)(O)O)n1 [ceftaroline fosamil acetic acid solvate monohydrate, reference compound]",–
